The record followed here is patent publication US11505523B2, “HDAC8 inhibitors for treating cancer” (City of Hope, priority 2013, dated 2022).

One series has as its system KG1a cells. Briefly: Survival of KG1a AML cells by Annexin V labeling. It is filed as cell-based, human. As to conditions: 48 h, result in words.
The subject of series [1] is Ac-p53 (K379) in 32D-CM cells. Briefly: Western blot of Ac-p53 in CBFβ-SMMHC (CM)-expressing 32D cells. It is filed as cell-based. The text has this:
(§1) Cells were lysed in RIPA buffer containing protease inhibitor cocktail (Roche) and MG132. Antibodies used for IP were conjugated with protein A/G beads using the antibody cross-linking kit (Pierce Biotechnology, Rockford, Ill.) following manufacturer's protocol. For Western blot, proteins were resolved in 10% SDS-PAGE. The antibodies used induced anti-FLAG (Sigma), anti-HDAC8, anti-CBFβ (Santa Cruz), anti-p53 (DO-1), anti-Ac-p53 (K379) (Cell Signaling), anti-p53 (Cell signaling) and anti-β-actin (Sigma). Horseradish peroxidase-conjugated anti-rabbit or anti-mouse secondary antibodies (Jackson ImmunoResearch, West Grove Pa.) were used, followed by detection using the SuperFemto kit (Pierce Biotechnology, Rockford, Ill.).
(§2) Class 1 HDACs, including HDAC1, HDAC2, and HDAC3, reportedly could inhibit p53 activity by deacetylating p53 [41-43]. […] To test this, we used lentivirus (pLKO. 1) mediated expression of 2 independent small-hairpin (sh)-RNA sequences against Hdac8 to specifically knock-down Hdac8 in 32D-CM cells. Cells were exposed to IR (3Gy) and analyzed for levels of p53 acetylation 6 h after.

Series [2] has as its system p53 target genes in 32D-CM cells. Briefly: qRT-PCR of p53 target genes in 32D-CM cells. It is filed as cell-based. As to conditions: 10 μM, 16 h.
For another series, the system named is CM-p53 protein complex. Briefly: Interaction of CM with p53 under HDAC8i treatment. The class given is cell-based.
Source text: as §1, §2

In series [3] the test system is p53 target genes in inv(16)^+ AML CD34^+ cells. Briefly: qRT-PCR of p53 target genes in inv(16)+ AML CD34+ cells. As to conditions: 10 μM, 16 h. The class given is cell-based, human. From the text:
(§3) FIGS. 5A-5G. […] FIG. 5A: Relative expression level of HDAC8 in normal (NL) PBSC (n=7) or inv(16)^+ AML (n=7) CD34^+ cells determined by qRT-PCR. Levels of HDAC8 expression were normalized to levels of ACTB in each sample. Dashed line indicates the average of all NL PBSC samples (set to an arbitrary value of 1). […] Each dot represents an individual subject and lines indicate mean±SEM. * P<0.05; ** P<0.01; *** P<0.001. […] Each dot represents an individual patient and lines indicate mean±SEM. * P<0.05; ** P<0.01; *** P<0.001. […] Levels of β-actin were detected as loading control. Shown are representative results from four patients. […] Each dot represents an individual subject and lines indicate mean±SEM. Dash line indicates levels in vehicle treated cells. * P<0.05; ** P<0.01; *** P<0.001. […] Each dot represents an individual patient and lines indicate mean±SEM.

Series [4] deals with p53 target genes in normal CD34^+ cells. Nature of the series: qRT-PCR of p53 target genes in normal CD34+ cells. As to conditions: similar treatment. It is filed as cell-based, human.
Source text: as §3

Series [5] relates to dTomato^+/cKit^+ AML cells (CBFβ-SMMHC^+ LSCs). Nature of the series: Ex vivo treatment of CM-induced AML cells followed by transplantation into irradiated congenic mice. The class given is in vivo. The method, then: FIGS. 6A-6G. […] FIG. 6A: Schematic illustration of experimental design. […] Progression of AML was monitored by engraftment of AML cells in peripheral blood (PB) over time (4, 8 weeks) and engraftment in bone marrow and spleen was analyzed 8 weeks after transplantation. A cohort of mice was monitored for AML development and disease-free survival. […] Results represent mean±SD. […] FIG. 6D: Representative FACS plots of engrafted dTomato^+/cKit^+ AML cells in the bone marrow or spleen 8 weeks after transplantation.
Ai14 Cre reporter tdTomato mice on C57BL/6 background were obtained from the Jackson Laboratory. To induce CBFβ-SMMHC expression, 4-6 week old Mx1-Cre/Cbfb^56M/+ mice were injected with 250 μg of polyinosinic-polycytidylic acid (pIpC) (InvivoGen) every 2 days for 7 doses. Similarly treated Cbfb^56M/+ littermates without Cre were used as control. Pre-leukemic cells were isolated from mice 2 weeks after the last dose of pIpC treatment. For leukemia development, induced mice were monitored up to 6 months and analyzed when moribund. Transplantation of AML cells (2×10^6 cells/mouse) was performed via tail vein injection into sub-lethally irradiated (6.5 Gy) 6-8-week-old congenic C57BL/6 mice (CD45.1^+/CD45.2^+). All mice were maintained in an AAALAC-accredited animal facility at City of Hope, and all experimental procedures involving mice were performed in accordance with federal and state government guidelines and established institutional guidelines and protocols approved by the Institutional Animal Care and Use Committee at Beckman Research Institute of City of Hope.
AML LSCs are functionally characterized by their capacity to engraft and reproduce AML disease in transplanted host. […] To test this, we made use of our murine CM-induced AML model allowing for high-level engraftment and reproducible disease upon secondary transplantation. To facilitate tracking of CM-expressing AML cells, we created Cbfb^56M/+/Mx1-Cre mice with a Cre-reporter line expressing tdTomato fluorescence protein following Cre-mediated recombination.

A further series addresses HDAC2 (Homo sapiens (Human), UniProt Q92769). Nature of the series: Inhibition of purified HDAC2. The conditions noted are these: read-out: HDAC 2 IC50; class I.
A further series has as its target HDAC3 (Homo sapiens (Human), UniProt O15379). Nature of the series: Inhibition of purified HDAC3. As to conditions: read-out: HDAC 3 IC50; class I.
A further series concerns the target HDAC6 (Homo sapiens (Human), UniProt Q9UBN7). Briefly: Inhibition of purified HDAC6. As to conditions: read-out: HDAC 6 IC50; class II.
The next series concerns the target HDAC10 (Homo sapiens (Human), UniProt Q969S8). Nature of the series: Inhibition of purified HDAC10. As to conditions: read-out: HDAC 10 IC50; class II.
A further series deals with HDAC11 (Homo sapiens (Human), UniProt Q96DB2). Briefly: Inhibition of purified HDAC11. As to conditions: read-out: HDAC 11 IC50; class IV.
HDAC11, sequence (Q96DB2 whole entry, species assumed): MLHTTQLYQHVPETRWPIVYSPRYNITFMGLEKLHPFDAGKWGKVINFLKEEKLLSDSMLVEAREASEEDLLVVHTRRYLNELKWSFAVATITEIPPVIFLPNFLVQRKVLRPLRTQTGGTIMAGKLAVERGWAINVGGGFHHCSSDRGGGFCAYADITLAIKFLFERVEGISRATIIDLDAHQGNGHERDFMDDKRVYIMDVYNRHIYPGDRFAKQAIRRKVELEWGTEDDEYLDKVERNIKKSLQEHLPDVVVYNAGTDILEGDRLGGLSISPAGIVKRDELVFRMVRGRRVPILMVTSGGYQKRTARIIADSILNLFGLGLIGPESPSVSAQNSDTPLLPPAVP
A further series concerns A549 cells. Nature of the series: Cytotoxicity / anti-proliferative activity in A549 lung cancer cells. The conditions noted are these: result in words.
For the next series, the system named is CL1-5 cells. Briefly: Cytotoxicity / anti-proliferative activity in CL1-5 lung cancer cells.

Bounds are passed on as bounds.

HDAC10, sequence (Q969S8 whole entry, species assumed): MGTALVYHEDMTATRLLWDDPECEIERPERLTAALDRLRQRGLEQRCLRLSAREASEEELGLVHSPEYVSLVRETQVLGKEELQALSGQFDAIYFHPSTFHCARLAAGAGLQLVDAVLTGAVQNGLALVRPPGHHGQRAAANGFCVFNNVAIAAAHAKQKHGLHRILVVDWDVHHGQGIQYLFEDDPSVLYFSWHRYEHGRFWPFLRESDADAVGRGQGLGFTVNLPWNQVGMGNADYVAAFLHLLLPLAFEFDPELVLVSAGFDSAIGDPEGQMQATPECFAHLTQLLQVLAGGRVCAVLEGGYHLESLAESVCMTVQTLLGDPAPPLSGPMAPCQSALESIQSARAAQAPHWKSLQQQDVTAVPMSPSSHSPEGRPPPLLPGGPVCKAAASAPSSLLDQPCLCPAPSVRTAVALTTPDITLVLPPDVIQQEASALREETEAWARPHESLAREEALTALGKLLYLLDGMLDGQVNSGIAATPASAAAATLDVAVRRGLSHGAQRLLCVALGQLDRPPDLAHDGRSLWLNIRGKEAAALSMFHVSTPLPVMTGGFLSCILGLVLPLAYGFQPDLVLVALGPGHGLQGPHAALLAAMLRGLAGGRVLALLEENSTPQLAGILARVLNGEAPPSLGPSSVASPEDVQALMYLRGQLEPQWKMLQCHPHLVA
HDAC2, sequence (Q92769 whole entry, species assumed): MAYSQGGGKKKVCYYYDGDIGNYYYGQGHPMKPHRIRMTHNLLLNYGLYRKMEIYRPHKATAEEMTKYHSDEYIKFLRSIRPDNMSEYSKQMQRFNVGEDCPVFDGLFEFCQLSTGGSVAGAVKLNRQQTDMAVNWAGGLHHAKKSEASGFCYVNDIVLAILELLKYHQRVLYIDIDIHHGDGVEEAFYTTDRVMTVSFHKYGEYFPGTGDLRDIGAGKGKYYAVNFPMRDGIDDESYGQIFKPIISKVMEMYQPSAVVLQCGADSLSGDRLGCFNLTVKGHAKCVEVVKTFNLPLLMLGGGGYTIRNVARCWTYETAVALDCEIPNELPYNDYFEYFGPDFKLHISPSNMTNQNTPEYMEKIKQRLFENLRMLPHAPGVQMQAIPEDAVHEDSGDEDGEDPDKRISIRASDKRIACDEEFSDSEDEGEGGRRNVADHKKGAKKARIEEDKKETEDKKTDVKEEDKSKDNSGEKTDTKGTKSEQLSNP
HDAC3, sequence (O15379 whole entry, looked up, species assumed): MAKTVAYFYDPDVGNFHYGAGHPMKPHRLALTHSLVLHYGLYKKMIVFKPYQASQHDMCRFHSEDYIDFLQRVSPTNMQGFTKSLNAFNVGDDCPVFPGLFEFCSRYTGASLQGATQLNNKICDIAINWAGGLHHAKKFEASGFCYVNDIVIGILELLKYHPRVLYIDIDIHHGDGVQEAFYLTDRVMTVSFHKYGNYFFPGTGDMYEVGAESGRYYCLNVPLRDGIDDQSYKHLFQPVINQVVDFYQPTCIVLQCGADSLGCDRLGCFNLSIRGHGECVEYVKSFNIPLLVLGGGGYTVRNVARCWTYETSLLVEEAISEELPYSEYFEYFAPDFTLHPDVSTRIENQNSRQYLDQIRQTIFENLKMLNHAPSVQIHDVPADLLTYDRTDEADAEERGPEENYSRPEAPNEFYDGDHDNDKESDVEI
HDAC3, sequence (Q9Y618 whole entry partner, looked up, species assumed): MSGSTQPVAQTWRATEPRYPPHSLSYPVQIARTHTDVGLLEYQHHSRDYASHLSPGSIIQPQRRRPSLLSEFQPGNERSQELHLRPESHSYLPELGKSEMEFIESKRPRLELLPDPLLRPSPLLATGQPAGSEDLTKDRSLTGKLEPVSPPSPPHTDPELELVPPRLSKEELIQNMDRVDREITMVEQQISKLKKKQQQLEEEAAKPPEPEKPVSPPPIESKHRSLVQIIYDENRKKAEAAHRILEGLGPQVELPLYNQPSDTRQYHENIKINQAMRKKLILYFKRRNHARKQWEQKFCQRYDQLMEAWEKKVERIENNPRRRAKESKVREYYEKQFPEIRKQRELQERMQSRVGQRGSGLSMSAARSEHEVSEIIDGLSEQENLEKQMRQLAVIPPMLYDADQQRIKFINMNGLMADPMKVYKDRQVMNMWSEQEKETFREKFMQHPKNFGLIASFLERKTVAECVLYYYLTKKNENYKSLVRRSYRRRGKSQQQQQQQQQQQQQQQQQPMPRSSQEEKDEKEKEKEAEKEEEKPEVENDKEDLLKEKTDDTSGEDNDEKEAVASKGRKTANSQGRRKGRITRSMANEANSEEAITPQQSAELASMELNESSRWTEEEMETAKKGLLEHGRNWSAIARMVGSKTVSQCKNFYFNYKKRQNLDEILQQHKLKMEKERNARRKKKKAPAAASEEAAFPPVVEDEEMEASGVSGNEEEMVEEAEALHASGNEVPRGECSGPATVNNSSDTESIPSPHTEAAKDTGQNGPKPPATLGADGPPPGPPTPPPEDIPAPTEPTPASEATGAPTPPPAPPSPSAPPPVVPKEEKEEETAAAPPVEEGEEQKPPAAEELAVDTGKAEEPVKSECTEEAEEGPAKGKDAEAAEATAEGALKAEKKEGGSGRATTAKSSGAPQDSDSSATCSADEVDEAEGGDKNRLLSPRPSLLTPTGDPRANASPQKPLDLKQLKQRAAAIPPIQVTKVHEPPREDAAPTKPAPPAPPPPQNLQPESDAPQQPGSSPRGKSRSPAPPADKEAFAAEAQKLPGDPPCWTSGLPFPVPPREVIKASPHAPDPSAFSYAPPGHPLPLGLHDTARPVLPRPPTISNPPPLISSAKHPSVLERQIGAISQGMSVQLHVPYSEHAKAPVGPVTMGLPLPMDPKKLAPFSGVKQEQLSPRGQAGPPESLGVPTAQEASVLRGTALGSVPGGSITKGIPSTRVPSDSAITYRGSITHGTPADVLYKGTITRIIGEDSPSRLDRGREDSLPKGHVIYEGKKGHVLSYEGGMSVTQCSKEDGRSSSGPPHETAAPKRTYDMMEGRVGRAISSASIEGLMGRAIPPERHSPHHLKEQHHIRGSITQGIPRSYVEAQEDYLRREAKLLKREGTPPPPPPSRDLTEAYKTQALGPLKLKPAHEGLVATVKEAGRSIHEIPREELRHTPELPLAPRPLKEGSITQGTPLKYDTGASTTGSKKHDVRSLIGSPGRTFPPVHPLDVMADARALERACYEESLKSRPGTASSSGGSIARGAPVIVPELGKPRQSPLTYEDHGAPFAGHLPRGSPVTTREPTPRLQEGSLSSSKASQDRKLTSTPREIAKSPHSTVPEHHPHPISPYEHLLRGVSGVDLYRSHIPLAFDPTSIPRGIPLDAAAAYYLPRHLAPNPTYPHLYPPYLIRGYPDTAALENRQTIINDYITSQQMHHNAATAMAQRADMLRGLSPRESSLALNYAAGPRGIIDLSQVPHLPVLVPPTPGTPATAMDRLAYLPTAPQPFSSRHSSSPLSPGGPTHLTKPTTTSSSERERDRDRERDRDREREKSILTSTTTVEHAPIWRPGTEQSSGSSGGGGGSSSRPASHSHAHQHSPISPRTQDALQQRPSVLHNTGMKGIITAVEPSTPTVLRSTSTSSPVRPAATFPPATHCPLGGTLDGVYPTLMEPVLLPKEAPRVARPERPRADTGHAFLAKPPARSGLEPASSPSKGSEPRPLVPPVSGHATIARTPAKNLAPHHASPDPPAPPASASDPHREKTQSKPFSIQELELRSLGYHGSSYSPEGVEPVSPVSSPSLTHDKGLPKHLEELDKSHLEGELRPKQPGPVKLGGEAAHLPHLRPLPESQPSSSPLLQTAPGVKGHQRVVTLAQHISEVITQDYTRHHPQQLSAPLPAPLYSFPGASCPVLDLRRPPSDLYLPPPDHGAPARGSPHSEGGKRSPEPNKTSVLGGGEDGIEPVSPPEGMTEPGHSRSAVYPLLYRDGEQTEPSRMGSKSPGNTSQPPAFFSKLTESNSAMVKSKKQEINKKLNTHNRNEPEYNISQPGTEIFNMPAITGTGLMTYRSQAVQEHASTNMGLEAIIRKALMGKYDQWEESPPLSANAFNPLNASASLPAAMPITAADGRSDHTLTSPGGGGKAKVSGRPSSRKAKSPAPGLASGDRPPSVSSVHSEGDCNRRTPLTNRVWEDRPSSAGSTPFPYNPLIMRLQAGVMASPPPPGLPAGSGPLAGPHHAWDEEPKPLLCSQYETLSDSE

For `COc1ccc(/C=C/C(=O)NO)c(-c2ccc(-c3ccccc3)cc2)c1` [Compound 22d, (E)-N-Hydroxy-4-methoxy-2-(biphenyl-4-yl)cinnamide], in the series with KG1a cells, the “survival of KG1a cells” value is reported as “decreases with increased HDAC8i concentration”. In addition, the “Ac-p53 level in CM-expressing cells” value in series [1] (Western blot, 6 h) is recorded as “remarkably increased Ac-p53”. The “Ac-p53 level, in combination with Nutlin-3” value in series [1] (compared to Nutlin-3 alone) is “enhanced Ac-p53 compared to Nutlin-3 alone”. For the same molecule, the “enhancement of p53 acetylation compared to other HDAC inhibitors” value in series [1] (vs MS-275, TV6, PCI-24781) is on record as “differential activity in enhancing p53 acetylation”. Besides, the “activation of p53 targets (Bax, Puma, p21, Gadd45b and LincRNA-p21)” value in [2] is recorded as “Variable levels of activation”. Also, the “interaction of CM with p53” value in the series with CM-p53 protein complex was “did not disrupt the interaction of CM with p53”. For the same molecule, in series [3], the “expression of p53 target genes in inv(16)+ AML CD34+ cells” value is “significantly induced expression of p53 target genes”. Also, in series [4], the “p53 target expression in normal CD34+ cells” value is listed as “no or little change in p53 target expression”. Besides, the “frequencies of dTomato+/cKit+ AML cells in BM and spleen” value in series [5] (8 weeks after transplantation, vs vehicle-treated cells) is given as “significantly (p=0.025) reduced frequencies”. For the same molecule, the “total numbers of dTomato+/cKit+ AML cells in BM and spleen” value in series [5] (8 weeks after transplantation, vs vehicle-treated group) is given as “significantly (p=0.025) lower”. Moreover, the “dTomato+/cKit+ cells in the peripheral blood” value in series [5] (cells treated 10 μM 48 h before transplantation) is on record as “barely detectable”. In series [5] (equal number (2×10^6) of treated AML cells transplanted), the “engraftment of dTomato+ and dTomato+/cKit+ cells” value is on record as “reduced the engraftment”. For the same molecule, in series [5] (mouse, in vivo), the “AML onset and survival of transplanted mice” value is listed as “prevented AML reoccurrence”. For the same molecule, the survival of mice result in [5] (mouse, in vivo) was “enhanced survival”. Further, the IC50 at HDAC2 was greater than 0.02 µM; on HDAC3, 0.003 ± 0.0001 µM; at HDAC6, greater than 0.02 µM; on HDAC10, greater than 0.02 µM; on HDAC11, greater than 0.02 µM; in the series with CL1-5 cells (read-out: Cytotoxicity IC50 Cl1-5, mean SD of three determinations), 0.007 ± 0.0015 µM. In addition, the “anti-proliferative effects in A549 cells” value with A549 cells is “moderate anti-proliferative effects”. In addition, in the series with CL1-5 cells (result in words), the “activity in CL1-5 cells” value was “activity similar to that of SAHA”.
